Measured values taken from the NIST ThermoML archive (doi:10.1016/j.jct.2015.12.029).
Numbers after ± are expanded uncertainties.

Legend:
[1] = 100 kPa, Liquid, Vibrating tube method
[2] = mn = molality of the nth substance listed, in mol/kg; conditions: 100 kPa, Liquid, Vibrating tube method, m2 = 0

Structure (SMILES) | mass density ([1]; 283.15 K) | mass density ([1]; 288.15 K) | mass density ([1]; 293.15 K) | mass density ([1]; 298.15 K) | mass density ([1]; 303.15 K) | mass density ([1]; 308.15 K) | mass density ([1]; 313.15 K) | mass density ([1]; 318.15 K) | mass density ([2]; 283.15 K) | mass density ([2]; 288.15 K) | mass density ([2]; 293.15 K) | mass density ([2]; 298.15 K) | mass density ([2]; 303.15 K) | mass density ([2]; 308.15 K) | mass density ([2]; 313.15 K) | mass density ([2]; 318.15 K)
CCCCO [butan-1-ol] | 817.103 ± 0.22 kg/m3 | 813.337 ± 0.22 kg/m3 | 809.548 ± 0.22 kg/m3 | 805.738 ± 0.22 kg/m3 | 801.901 ± 0.22 kg/m3 | 798.032 ± 0.22 kg/m3 | 794.128 ± 0.23 kg/m3 | 790.181 ± 0.23 kg/m3 | – | – | – | – | – | – | – | –
CCCCO [butan-1-ol] + CCCCn1cc[n+](C)c1.F[B-](F)(F)F | – | – | – | – | – | – | – | – | 817.103 ± 0.23 kg/m3 | 813.337 ± 0.23 kg/m3 | 809.548 ± 0.23 kg/m3 | 805.738 ± 0.23 kg/m3 | 801.901 ± 0.23 kg/m3 | 798.032 ± 0.23 kg/m3 | 794.128 ± 0.23 kg/m3 | 790.181 ± 0.23 kg/m3
CCCCO [butan-1-ol] + CCn1cc[n+](C)c1.F[B-](F)(F)F | – | – | – | – | – | – | – | – | 817.103 ± 0.23 kg/m3 | 813.337 ± 0.23 kg/m3 | 809.548 ± 0.23 kg/m3 | 805.738 ± 0.23 kg/m3 | 801.901 ± 0.23 kg/m3 | 798.032 ± 0.23 kg/m3 | 794.128 ± 0.23 kg/m3 | 790.181 ± 0.23 kg/m3
